Data published in patent publication US6107017A, “Photographic elements containing high-boiling diester solvents” (Eastman Kodak Company, priority 1998, dated 2000).

Columns and labels:
Assay type in all cases: physicochemical
[1] = Water solubility from light scattering (at 500 nm) of dispersions of the high-boiling solvent in water
Description: (§1) Water solubilities were obtained from plots of light scattering (at 500 nm) of dispersions of the high-boiling solvent in water versus concentration. The light scattering density goes to zero at the solubility limit, when dispersions of high-boiling solvent are diluted. […] Viscosities reported in Table I were measured using a Brookfield cone/plate viscometer. Solvents of high polarity and/or polarizability are often needed to provide suitably bathochromic hues for the types of dyes commonly encountered in color photographic materials. Dye C1, whose structure is provided after Table I, is representative of such dyes. The visible absorption maxima (Lambda max) values for C1, measured with a Perkin Elmer Lambda 2S spectrophotometer, are provided in Table I as measures of solvent polarity/polarizability.

[2] = Visible absorption maximum (Lambda max) of Dye C1 in the high-boiling solvent, as measure of solvent polarity/polarizability; settings: Perkin Elmer Lambda 2S spectrophotometer
Description: as §1

[3] = Viscosity measured using a Brookfield cone/plate viscometer
Description: Water solubilities were obtained from plots of light scattering (at 500 nm) of dispersions of the high-boiling solvent in water versus concentration. The light scattering density goes to zero at the solubility limit, when dispersions of high-boiling solvent are diluted. Values of log P calculated using MEDCHEM version 3.54 are also given in Table I and serve as rough indicators of water solubility. Viscosities reported in Table I were measured using a Brookfield cone/plate viscometer. Solvents of high polarity and/or polarizability are often needed to provide suitably bathochromic hues for the types of dyes commonly encountered in color photographic materials. Dye C1, whose structure is provided after Table I, is representative of such dyes. The visible absorption maxima (Lambda max) values for C1, measured with a Perkin Elmer Lambda 2S spectrophotometer, are provided in Table I as measures of solvent polarity/polarizability.

[4] = Lambda max of the yellow dye produced from Coupler Y-1 on development; settings: yellow dye from Y-1, at a blue density of about 1.0
Description: For this example, Coupler Y-1 (structure below) was dispersed and coated with comparative high-boiling solvent B1 and with high-boiling solvent A2 of this invention. The dispersions were prepared by adding an oil phase containing a 1:1:3 weight ratio of Y-1:high-boiling solvent: ethyl acetate to an aqueous phase containing gelatin and the dispersing agent ALKANOL XC (mixed isomers of triisopropyl-2-naphthalene sulfonic acid, sodium salt, DuPont) in a 10:1 weight ratio. The mixture was then passed through a colloid mill to disperse the oil in the aqueous phase as small particles. On coating, the ethyl acetate auxiliary solvent evaporates. […]
After hardening, samples of each of the films in Table II were given a sensitometric white light exposure and processed using the KODAK FLEXICOLOR C-41 procedure described in Table III. Measurements of status M blue density versus exposure were made for each processed film strip, and photographic contrast (gamma) was determined from the slopes of such plots. […] The gamma value of 2.45 obtained with solvent A2 of this invention in coating B is similar to the gamma value of 2.63 obtained from comparative solvent B1 in coating A. Spectra of the yellow dye produced from Y-1 on development were measured at a blue density of about 1.0 using a Perkin Elmer Lambda 2S spectrophotometer. […]

Cc1ccc(C(=O)OCCC(C)OC(=O)c2ccc(C)cc2)cc1 (centres unmarked) [A1]
Water Solubility [1]: 1.2 mg/L
Lambda max of Dye C1 [2]: 672 nm
Viscosity [3]: 265 centipoise

CCCCC(COC(=O)c1ccccc1)OC(=O)c1ccccc1 (centres unmarked) [A2]
Lambda max [4]: 449 nm
Water Solubility [1]: 1.1 mg/L
Lambda max of Dye C1 [2]: 672 nm
Viscosity [3]: 157 centipoise

Cc1cccc(C(=O)OCCC(C)OC(=O)c2cccc(C)c2)c1 (centres unmarked) [A3]
Water Solubility [1]: 1.9 mg/L
Lambda max of Dye C1 [2]: 672 nm
Viscosity [3]: 295 centipoise

O=C(OCCCCCOC(=O)c1ccccc1)c1ccccc1 [A4]
Water Solubility [1]: 2.4 mg/L
Lambda max of Dye C1 [2]: 674 nm
Viscosity [3]: 70 centipoise

CCCC(COC(=O)c1ccccc1)OC(=O)c1ccccc1 (centres unmarked) [A5]
Water Solubility [1]: 1.5 mg/L
Lambda max of Dye C1 [2]: 673 nm
Viscosity [3]: 122 centipoise

CCCCOC(=O)c1ccccc1C(=O)OCCCC [B1, dibutyl phthalate, reference compound]
Lambda max [4]: 449 nm

CCCCC(CC)COC(=O)c1ccccc1 (centres unmarked) [B3, reference compound]
Lambda max of Dye C1 [2]: 661 nm
Viscosity [3]: 6 centipoise

O=C(OCCc1ccccc1)c1ccccc1 [B4, reference compound]
Water Solubility [1]: 10 mg/L
